Test results as given in patent US20240132484A1, “BROAD SPECTRUM ANTIVIRAL COMPOUNDS TARGETING THE SKI COMPLEX” (priority 2020, published 2024).
Several values for one entry are separate records, joined by “and”; a condition that tells them apart may be missing. Equal entries are not always repeated. Where two headings read alike, the source gives them in different places.

Key:
SARS2 = type: cell-based, SARS-CoV-2; conditions: for Percentage Infection Relative to Appropriate DMSO Control with Avg Background Subtraction: single well; for Percentage Inhibition Average 1 μM / Screening data (Relative infection to DMSO controls) Average 1 μM: SARS2, 1 μM; for Screening data (Relative infection to DMSO controls) Average 1 μM / Screening data (Relative infection to DMSO controls) Average 5 μM / Screening data (Relative infection to DMSO controls) Average 10 μM / Screening data (Relative infection to DMSO controls) Average 25 μM / Screening data (Relative infection to DMSO controls) Average 50 μM / Average (relative infection to DMSO over the 5 tested concentrations): 100=DMSO control; for Percentage Inhibition Average 5 μM / Screening data (Relative infection to DMSO controls) Average 5 μM: SARS2, 5 μM; for Percentage Inhibition Average 10 μM / Screening data (Relative infection to DMSO controls) Average 10 μM: SARS2, 10 μM; for Percentage Inhibition Average 25 μM / Screening data (Relative infection to DMSO controls) Average 25 μM: SARS2, 25 μM; for Percentage Inhibition Average 50 μM / Screening data (Relative infection to DMSO controls) Average 50 μM: SARS2, 50 μM; for Average (relative infection to DMSO over the 5 tested concentrations): SARS2, average over 1 to 50 uM
cells (nuclei count) = conditions: for Relative cell count to DMSO controls, Average 1 μM / Relative cell count to DMSO controls, Average 5 μM / Relative cell count to DMSO controls, Average 10 μM / Relative cell count to DMSO controls, Average 25 μM / Relative cell count to DMSO controls, Average 50 μM: toxicity data, 100=DMSO control; for Relative cell count to DMSO controls, Average (for correlation analysis): average value over the 5 tested concentrations (1 to 50 uM)

In the case of `CCN(CC)CCN(Cc1ccccc1)Cc1ccc(C)o1` [SILCS23], the “Infection Data, Average, Mean” value (SARS2; Average of Exp 1-3, n 9, 1 uM) is reported as 83.26%, the “Infection Data, Average, Mean” value (SARS2; Average of Exp 1-3, n 9, 5 uM) is reported as 72.94% and the “Infection Data, Average, Mean” value (SARS2; Average of Exp 1-3, n 9, 10 uM) is reported as 71.95%. For the same compound, the “Infection Data, Average, Mean” value (SARS2; Average of Exp 1-3, n 9, 25 uM) was 42.51%, the “Infection Data, Average, Mean” value (SARS2; Average of Exp 1-3, n 9, 50 uM) was 25.76% and the “Percentage Infection Relative to Appropriate DMSO Control with Avg Background Subtraction” value (SARS2; Exp 1 (SMW475), 1 uM) was 84.61% and 99.83% and 96.53%. For the same compound, the “Percentage Infection Relative to Appropriate DMSO Control with Avg Background Subtraction” value (SARS2; Exp 1 (SMW475), 5 uM) was 76.20% and 84.17% and 85.48%, the “Percentage Infection Relative to Appropriate DMSO Control with Avg Background Subtraction” value (SARS2; Exp 1 (SMW475), 10 uM) was 57.63% and 66.75% and 71.82% and the “Percentage Infection Relative to Appropriate DMSO Control with Avg Background Subtraction” value (SARS2; Exp 1 (SMW475), 25 uM) was 23.73% and 16.03% and 21.54%. For the same compound, the “Percentage Infection Relative to Appropriate DMSO Control with Avg Background Subtraction” value (SARS2; Exp 1 (SMW475), 50 uM) was 11.05% and 12.93% and 12.05%, the “Percentage Infection Relative to Appropriate DMSO Control with Avg Background Subtraction” value (SARS2; Exp 2 (SMW477), 1 uM) was 76.88% and 82.87% and 95.55% and the “Percentage Infection Relative to Appropriate DMSO Control with Avg Background Subtraction” value (SARS2; Exp 2 (SMW477), 5 uM) was 77.18% and 66.56% and 59.07%. For the same compound, the “Percentage Infection Relative to Appropriate DMSO Control with Avg Background Subtraction” value (SARS2; Exp 2 (SMW477), 10 uM) was 81.53% and 45.87% and 61.92%, the “Percentage Infection Relative to Appropriate DMSO Control with Avg Background Subtraction” value (SARS2; Exp 2 (SMW477), 25 uM) was 42.76% and 36.42% and 27.04% and the “Percentage Infection Relative to Appropriate DMSO Control with Avg Background Subtraction” value (SARS2; Exp 2 (SMW477), 50 uM) was 22.07% and 19.29% and 19.84%. The “Percentage Infection Relative to Appropriate DMSO Control with Avg Background Subtraction” value (SARS2; Exp 3 (SMW478), 1 uM) was 74.83% and 73.82% and 64.40%, the “Percentage Infection Relative to Appropriate DMSO Control with Avg Background Subtraction” value (SARS2; Exp 3 (SMW478), 5 uM) was 80.66% and 70.90% and 56.23% and the “Percentage Infection Relative to Appropriate DMSO Control with Avg Background Subtraction” value (SARS2; Exp 3 (SMW478), 10 uM) was 84.08% and 95.62% and 82.31%. The “Percentage Infection Relative to Appropriate DMSO Control with Avg Background Subtraction” value (SARS2; Exp 3 (SMW478), 25 uM) was 59.17% and 74.77% and 81.13%, the “Percentage Infection Relative to Appropriate DMSO Control with Avg Background Subtraction” value (SARS2; Exp 3 (SMW478), 50 uM) was 42.28% and 47.99% and 44.36% and the “Percentage Inhibition Average 1 μM” value (SARS2) was 16.74%. The “Screening data (Relative infection to DMSO controls) Average 1 μM” value (SARS2) was 83.26, the “Percentage Inhibition Average 5 μM” value (SARS2) was 27.06% and the “Screening data (Relative infection to DMSO controls) Average 5 μM” value (SARS2) was 72.94. The “Percentage Inhibition Average 10 μM” value (SARS2) was 28.05%, the “Screening data (Relative infection to DMSO controls) Average 10 μM” value (SARS2) was 71.95 and the “Percentage Inhibition Average 25 μM” value (SARS2) was 57.49%. The “Screening data (Relative infection to DMSO controls) Average 25 μM” value (SARS2) was 42.51, the “Percentage Inhibition Average 50 μM” value (SARS2) was 74.24% and the “Screening data (Relative infection to DMSO controls) Average 50 μM” value (SARS2) was 25.76. The “Average (relative infection to DMSO over the 5 tested concentrations)” value (SARS2) was 59.28, the “Relative cell count to DMSO controls, Average 1 μM” value (cells (nuclei count)) was 123.69 and the “Relative cell count to DMSO controls, Average 5 μM” value (cells (nuclei count)) was 129.2. The “Relative cell count to DMSO controls, Average 10 μM” value (cells (nuclei count)) was 125.61, the “Relative cell count to DMSO controls, Average 25 μM” value (cells (nuclei count)) was 112.58 and the “Relative cell count to DMSO controls, Average 50 μM” value (cells (nuclei count)) was 92.88. For the same compound, the “Toxicity Data, Average, Mean” value (cells (nuclei count); Average of Exp 1-3, n 9, 1 uM) was 123.69%, the “Toxicity Data, Average, Mean” value (cells (nuclei count); Average of Exp 1-3, n 9, 5 uM) was 129.20% and the “Toxicity Data, Average, Mean” value (cells (nuclei count); Average of Exp 1-3, n 9, 10 uM) was 125.61%. For the same compound, the “Toxicity Data, Average, Mean” value (cells (nuclei count); Average of Exp 1-3, n 9, 25 uM) was 112.58%, the “Toxicity Data, Average, Mean” value (cells (nuclei count); Average of Exp 1-3, n 9, 50 uM) was 92.88% and the “Relative cell count to DMSO controls, Average (for correlation analysis)” value (cells (nuclei count)) was 116.79.
In the case of `CCN(CC)CCN(Cc1ccc(C)o1)Cc1cccs1` [SILCS24], the “Infection Data, Average, Mean” value (SARS2; Average of Exp 1-3, n 9, 1 uM) is reported as 68.53%, the “Infection Data, Average, Mean” value (SARS2; Average of Exp 1-3, n 9, 5 uM) is reported as 71.54% and the “Infection Data, Average, Mean” value (SARS2; Average of Exp 1-3, n 9, 10 uM) is reported as 70.96%. The “Infection Data, Average, Mean” value (SARS2; Average of Exp 1-3, n 9, 25 uM) was 35.04%, the “Infection Data, Average, Mean” value (SARS2; Average of Exp 1-3, n 9, 50 uM) was 19.26% and the “Percentage Infection Relative to Appropriate DMSO Control with Avg Background Subtraction” value (SARS2; Exp 1 (SMW475), 1 uM) was 124.65% and 102.70% and 66.42%. For the same compound, the “Percentage Infection Relative to Appropriate DMSO Control with Avg Background Subtraction” value (SARS2; Exp 1 (SMW475), 5 uM) was 90.16% and 99.17% and 50.26%, the “Percentage Infection Relative to Appropriate DMSO Control with Avg Background Subtraction” value (SARS2; Exp 1 (SMW475), 10 uM) was 93.85% and 91.06% and 50.31% and the “Percentage Infection Relative to Appropriate DMSO Control with Avg Background Subtraction” value (SARS2; Exp 1 (SMW475), 50 uM) was 20.92% and 16.99% and 16.36%. For the same compound, the “Percentage Infection Relative to Appropriate DMSO Control with Avg Background Subtraction” value (SARS2; Exp 2 (SMW477), 1 uM) was 88.56% and 86.90% and 93.54%, the “Percentage Infection Relative to Appropriate DMSO Control with Avg Background Subtraction” value (SARS2; Exp 2 (SMW477), 5 uM) was 78.38% and 98.62% and 72.17% and the “Percentage Infection Relative to Appropriate DMSO Control with Avg Background Subtraction” value (SARS2; Exp 2 (SMW477), 10 uM) was 54.07% and 57.64% and 38.68%. The “Percentage Infection Relative to Appropriate DMSO Control with Avg Background Subtraction” value (SARS2; Exp 2 (SMW477), 50 uM) was 18.59% and 11.16% and 9.24%, the “Percentage Infection Relative to Appropriate DMSO Control with Avg Background Subtraction” value (SARS2; Exp 3 (SMW478), 10 uM) was 97.16% and 81.93% and 73.95% and the “Percentage Inhibition Average 1 μM” value (SARS2) was 31.47%. The “Screening data (Relative infection to DMSO controls) Average 1 μM” value (SARS2) was 68.53, the “Percentage Inhibition Average 5 μM” value (SARS2) was 28.46% and the “Screening data (Relative infection to DMSO controls) Average 5 μM” value (SARS2) was 71.54. The “Percentage Inhibition Average 10 μM” value (SARS2) was 29.04%, the “Screening data (Relative infection to DMSO controls) Average 10 μM” value (SARS2) was 70.96 and the “Percentage Inhibition Average 25 μM” value (SARS2) was 64.96%. The “Screening data (Relative infection to DMSO controls) Average 25 μM” value (SARS2) was 35.04, the “Percentage Inhibition Average 50 μM” value (SARS2) was 80.74% and the “Screening data (Relative infection to DMSO controls) Average 50 μM” value (SARS2) was 19.26. The “Average (relative infection to DMSO over the 5 tested concentrations)” value (SARS2) was 53.07, the “Relative cell count to DMSO controls, Average 1 μM” value (cells (nuclei count)) was 133.02 and the “Relative cell count to DMSO controls, Average 5 μM” value (cells (nuclei count)) was 124. The “Relative cell count to DMSO controls, Average 10 μM” value (cells (nuclei count)) was 120.3, the “Relative cell count to DMSO controls, Average 25 μM” value (cells (nuclei count)) was 96.21 and the “Relative cell count to DMSO controls, Average 50 μM” value (cells (nuclei count)) was 76.48. For the same compound, the “Toxicity Data, Average, Mean” value (cells (nuclei count); Average of Exp 1-3, n 9, 1 uM) was 133.02%, the “Toxicity Data, Average, Mean” value (cells (nuclei count); Average of Exp 1-3, n 9, 5 uM) was 124.00% and the “Toxicity Data, Average, Mean” value (cells (nuclei count); Average of Exp 1-3, n 9, 10 uM) was 120.30%. The “Toxicity Data, Average, Mean” value (cells (nuclei count); Average of Exp 1-3, n 9, 25 uM) was 96.21%, the “Toxicity Data, Average, Mean” value (cells (nuclei count); Average of Exp 1-3, n 9, 50 uM) was 76.48% and the “Relative cell count to DMSO controls, Average (for correlation analysis)” value (cells (nuclei count)) was 110.00.
